{"source": "patent US8486374B2", "about": "“Hydrophilic, non-aqueous pharmaceutical carriers and compositions and uses” (Foamix Ltd., priority 2004, dated 2013)", "assay_type_in_all_cases": "physicochemical", "key": {"[1]": {"test": "Shakability of the composition", "description": "‘Shakability’ means that the composition contains some or sufficient flow to allow the composition to be mixed or remixed on shaking. That is, it has fluid or semi fluid properties. A breakable foam is that is thermally stable, yet breaks under sheer force.\n‘Shakability’ means that the composition contains some or sufficient flow to allow the composition to be mixed or remixed on shaking. That is, it has fluid or semi fluid properties. In some very limited cases it may still be possible to have a foamable composition which is flowable but not apparently shakable."}, "[2]": {"test": "Foam appearance (color, odor, form)", "parameters": "key to ODOR: No odor (N.O.); key to COLOR: white (W)"}, "[3]": {"test": "Solubility of the active agent in solvents/carriers", "settings": "in the polyol and DMI mixture (Example 19 composition)"}, "[4]": {"test": "Foam quality grading upon release from the aerosol container", "settings": "active agent in stock of PEG-400 97.5, hydroxypropyl cellulose 0.5, steareth 2 2.0 (first Example 29)", "description": "Foam quality can be graded as follows:\nGrade FG (fairly good): a moderate amount of creaminess noticeable, bubble structure is noticeable; upon spreading on the skin the product dulls rapidly and becomes somewhat lower in apparent viscosity.\nGrade F (fair): very little creaminess noticeable, larger bubble structure than a “fairly good” foam, upon spreading on the skin it becomes thin in appearance and watery.\nGrade P (poor): no creaminess noticeable, large bubble structure, and when spread on the skin it becomes very thin and watery in appearance.\nGrade VP (very poor): dry foam, large very dull bubbles, difficult to spread on the skin."}, "[5]": {"settings": "active agent in stock of PEG-400 97.5, hydroxypropyl cellulose 0.5, steareth 2 2.0 (first Example 29)"}, "[6]": {"settings": "active agent in stock of propylene glycol 46, glycerin 33, dimethyl isosorbide 15, stearyl alcohol, hydroxypropyl cellulose, laureth-4, GMS/PEG 100 stearate (Example 30)"}, "[7]": {"settings": "active agent in stock of propylene glycol 91, stearyl alcohol 2, Klucel EF 2, laureth-4 2, glyceryl monostearate/PEG 100 stearate 3 (second Example 29)"}}}
{"smiles": "Nc1nc2c(ncn2COCCO)c(=O)[nH]1", "note": "[Acyclovir]", "values": [{"measurement": "SHAKABILITY", "setting": "[1]; [5]", "result": "Yes"}, {"measurement": "SHAKABILITY", "setting": "[1]; [6]", "result": "Yes"}, {"measurement": "SHAKABILITY", "setting": "[1]; [7]", "result": "Yes"}, {"measurement": "COLOR", "setting": "[2]; [5]", "result": "W"}, {"measurement": "ODOR", "setting": "[2]; [5]", "result": "N.O"}, {"measurement": "COLOR", "setting": "[2]; [6]", "result": "O.W"}, {"measurement": "ODOR", "setting": "[2]; [6]", "result": "N.O"}, {"measurement": "COLOR", "setting": "[2]; [7]", "result": "O.W"}, {"measurement": "ODOR", "setting": "[2]; [7]", "result": "N.O"}, {"measurement": "solubility", "setting": "[3]", "result": "not fully soluble"}]}
{"smiles": "O=C(O)Cc1ccccc1Nc1c(Cl)cccc1Cl", "note": "[Diclofenac sodium]", "values": [{"measurement": "QUALITY", "setting": "[4]", "result": "G+"}, {"measurement": "SHAKABILITY", "setting": "[1]; [5]", "result": "Yes"}, {"measurement": "SHAKABILITY", "setting": "[1]; [6]", "result": "Yes"}, {"measurement": "SHAKABILITY", "setting": "[1]; [7]", "result": "Yes"}, {"measurement": "COLOR", "setting": "[2]; [5]", "result": "W"}, {"measurement": "ODOR", "setting": "[2]; [5]", "result": "N.O"}, {"measurement": "COLOR", "setting": "[2]; [6]", "result": "W"}, {"measurement": "ODOR", "setting": "[2]; [6]", "result": "N.O"}, {"measurement": "COLOR", "setting": "[2]; [7]", "result": "W"}, {"measurement": "ODOR", "setting": "[2]; [7]", "result": "N.O"}]}
